Bridge positions count the residues as written; N and C are the ends. Peptide text beside a SMILES is read from it.
Key:
[1] = test system: Human CMV (Tanaka strain); experiment: Inhibitory activity against human CMV infection and proliferation in HELF cells (fluorescence staining); format: cell-based, Human cytomegalo virus; details: 24 hrs., concentration not given
Method: (Method) LF derived peptide was dissolved in 2% serum added MEM medium to give five mg/ml solution, filtered and sterilized to make a stock solution. The stock solution was diluted with 2% serum added MEM medium on use. Samples containing human embryo lung fibroblast cells (HELF cells) were suspended in 2% serum added MEM medium and incubated for 10 minutes. The cells were collected by centrifugation, washed twice with 2% serum added MEM medium and suspended in 2% serum added MEM medium. Human cytomegalo virus [Human CMV (Tanaka strain)] was added, incubated for 24 hrs., fluorescence stained with human CMV positive serum and the adsorption rate of human CMV to the cells was determined.
The results are judged from the numbers of fluorescent stained cells per one cover slip.

[2] = test system: influenza virus A/PR/8/34; details: 100 μl of one mg/ml solution in allantoic cavity three hours before virus; average of five eggs
[3] = test system: HIV (HTLV-IIIB); experiment: Inhibitory activity against HIV infection and proliferation in MT-4 cells (indirect fluorescence antibody method); format: cell-based, human immunodeficiency virus (HIV); details: three days, positive control 26.0%
Method: (Method) Cultured supernatant of MOLT-4/HTLV-IIIB cells, a HTLV-IIIB persistent infected strain of HIV, was used as a viral solution. The supernatant was kept at -80° C. Human T cell line MT-4 was used for the test. MT-4 was subcultured in RPMI 1640 medium containing 10% fetal calf serum (FCS). Sample, LF derived peptide, was dissolved in RPMI 1640 medium and one ml of the diluted solution at various concentrations was added to the cells. The inoculated MT-4 test sample was incubated for 60 minutes and infected with HIV at a concentration of moi […]=0.01 and one ml of the cell solution adjusted at a cell density of 3×10^5 cells/ml was added. The cells were cultured for three days : and HIV infected cells were determined with an indirect fluorescence antibody method.
HIV infected cells were determined by the indirect fluorescence antibody method using HIV infected patient serum as a primary antibody. […] HIV infected MT-4 cells cultured without addition of the sample was used as a positive control and cells without addition of viral solution was cultured to make a negative control group.

[4] = test system: mouse cytomegalo virus (mouse CMV); experiment: In vivo inhibitory activity against mouse CMV infection (survival of mice); details: after 10 days
Method: (Method) Male Balbc/AJcl mice, 4-week-old (10 in one group) were used. The sample was dissolved in phosphate buffer saline solution (PBS) and intraperitoneally administered to mice.

Row | Compound | Inhibitory rate of human CMV infection [1] [%] | Inhibitory rate of infection and proliferation of influenza virus [2] [%] | ratio of stained (HIV infected) cells ([3]; sample 63 μg/ml) [%] | ratio of stained (HIV infected) cells ([3]; sample 125 μg/ml) [%] | ratio of stained (HIV infected) cells ([3]; sample 250 μg/ml) [%] | ratio of stained (HIV infected) cells ([3]; sample 500 μg/ml) [%] | ratio of stained (HIV infected) cells ([3]; sample 1,000 μg/ml) [%] | Survival rate ([4]; 0.02 g/kg of body weight i.p. 24 hrs. before mouse CMV) [%] | Survival rate ([4]; 0.05 g/kg of body weight i.p. 24 hrs. before mouse CMV) [%] | Survival rate ([4]; 0.10 g/kg of body weight i.p. 24 hrs. before mouse CMV) [%] | Survival rate ([4]; 0.50 g/kg of body weight i.p. 24 hrs. before mouse CMV) [%]
1 | CC[C@H](C)[C@@H]1NC(=O)[C@H](CO)NC(=O)[C@@H]2CCCN2C(=O)[C@H](C)NC(=O)CNC(=O)[C@H](CC(C)C)NC(=O)[C@H](CCCCN)NC(=O)[C@H](CCCCN)NC(=O)[C@H](CCSC)NC(=O)[C@H](CCCNC(=N)N)NC(=O)[C@H](Cc2c[nH]c3ccccc23)NC(=O)[C@H](CCC(N)=O)NC(=O)[C@H](Cc2c[nH]c3ccccc23)NC(=O)[C@H](CCCNC(=N)N)NC(=O)[C@H](CCCNC(=N)N)NC(=O)[C@@H](NC(C)=O)CSSC[C@@H](C(N)=O)NC(=O)[C@H]([C@@H](C)O)NC1=O [Ac-bovine LF (19-36)-NH2, N-acetyl-bovine LF (19-36)-amide] (Ac-CRRWQWRMKKLGAPSITC-NH2; disulfide 1-18) | 96.5 | 87.5 | 17 | 8.8 | 6.1 | 5.0 | 3.6 |  |  |  | 
2 | CSCC[C@@H]1NC(=O)[C@H](CC(N)=O)NC(=O)[C@H](CCCNC(=N)N)NC(=O)[C@H](CCC(N)=O)NC(=O)[C@H](Cc2c[nH]c3ccccc23)NC(=O)[C@H](CCC(N)=O)NC(=O)[C@H](Cc2ccccc2)NC(=O)[C@@H](NC(C)=O)CSSC[C@@H](C(N)=O)NC(=O)[C@H](CO)NC(=O)[C@H](C(C)C)NC(=O)[C@@H]2CCCN2C(=O)[C@@H]2CCCN2C(=O)CNC(=O)[C@H](CCCNC(=N)N)NC(=O)[C@H](C(C)C)NC(=O)[C@H](CCCCN)NC(=O)[C@H](CCCNC(=N)N)NC1=O [Ac-human LF (20-37)-NH2, N-acetyl-human LF (20-37)-amide] (Ac-CFQWQRNMRKVRGPPVSC-NH2; disulfide 1-18) | 96.1 | 93.7 | 18 | 9.8 | 7.7 | 4.5 | 3.9 |  |  |  | 
3 | CC[C@H](C)[C@@H]1NC(=O)[C@H](CO)NC(=O)[C@@H]2CCCN2C(=O)[C@H](C)NC(=O)CNC(=O)[C@H](CC(C)C)NC(=O)[C@H](CCCCN)NC(=O)[C@H](CCCCN)NC(=O)[C@H](CCSC)NC(=O)[C@H](CCCNC(=N)N)NC(=O)[C@H](Cc2c[nH]c3ccccc23)NC(=O)[C@H](CCC(N)=O)NC(=O)[C@H](Cc2c[nH]c3ccccc23)NC(=O)[C@H](CCCNC(=N)N)NC(=O)[C@H](CCCNC(=N)N)NC(=O)[C@@H](NC(=O)[C@H](CCCCN)NC(=O)[C@@H](N)Cc2ccccc2)CSSC[C@@H](C(=O)N[C@H](C(=O)N[C@@H](CCCNC(=N)N)C(=O)N[C@@H](CCCNC(=N)N)C(=O)N[C@@H](C)C(=O)N[C@@H](Cc2ccccc2)C(=O)O)C(C)C)NC(=O)[C@H]([C@@H](C)O)NC1=O [Bovine LF (17-41)] | 95.7 | 93.7 | 17 | 7.9 | 5.9 | 2.7 | 1.0 | 30 | 60 | 100 | 100
4 | CC[C@H](C)[C@H](NC(=O)[C@H](CO)NC(=O)[C@@H]1CCCN1C(=O)[C@H](C)NC(=O)CNC(=O)[C@H](CC(C)C)NC(=O)[C@H](CCCCN)NC(=O)[C@H](CCCCN)NC(=O)[C@H](CCSC)NC(=O)[C@H](CCCNC(=N)N)NC(=O)[C@H](Cc1c[nH]c2ccccc12)NC(=O)[C@H](CCC(N)=O)NC(=O)[C@H](Cc1c[nH]c2ccccc12)NC(=O)[C@H](CCCNC(=N)N)NC(=O)[C@H](CCCNC(=N)N)NC(=O)[C@H](CS)NC(=O)[C@H](CCCCN)NC(=O)[C@@H](N)Cc1ccccc1)C(=O)N[C@H](C(=O)N[C@@H](CS)C(=O)N[C@H](C(=O)N[C@@H](CCCNC(=N)N)C(=O)N[C@@H](CCCNC(=N)N)C(=O)N[C@@H](C)C(=O)N[C@@H](Cc1ccccc1)C(=O)O)C(C)C)[C@@H](C)O [[19 CysSH, 36 CysSH] Bovine LF (17-41)] | 100.0 | 92.0 | 19 | 8.3 | 6.4 | 2.9 | 1.2 |  |  |  | 
5 | CC[C@H](C)[C@H](NC(=O)[C@H](CS)NC(=O)[C@H](CO)NC(=O)[C@@H](NC(=O)[C@@H]1CCCN1C(=O)[C@@H]1CCCN1C(=O)CNC(=O)[C@H](CCCNC(=N)N)NC(=O)[C@@H](NC(=O)[C@H](CCCCN)NC(=O)[C@H](CCCNC(=N)N)NC(=O)[C@H](CCSC)NC(=O)[C@H](CC(N)=O)NC(=O)[C@H](CCCNC(=N)N)NC(=O)[C@H](CCC(N)=O)NC(=O)[C@H](Cc1c[nH]c2ccccc12)NC(=O)[C@H](CCC(N)=O)NC(=O)[C@H](Cc1ccccc1)NC(=O)[C@H](CS)NC(=O)[C@H](CCCCN)NC(=O)[C@@H](N)[C@@H](C)O)C(C)C)C(C)C)C(=O)N[C@@H](CCCCN)C(=O)N[C@@H](CCCNC(=N)N)C(=O)N[C@@H](CC(=O)O)C(=O)N[C@@H](CO)C(=O)O [[20CysSH, 37CysSH] Human LF (18-42)] (H-TKCFQWQRNMRKVRGPPVSCIKRDS-OH) | 100.0 | 96.0 | 17 | 8.5 | 6.2 | 3.1 | 1.4 |  |  |  | 
6 | Bovine LF: bovine lactoferrin, an iron-binding protein secreted in milk (CRRWQWRMKKLGAPSITC) | 95.7 | 87.5 | 18 | 8.0 | 6.2 | 4.8 | 3.6 |  |  |  | 

Source: US5565425A, “Viral infection and proliferation inhibitors” (Snow Brand Milk Products Co., Ltd, priority 1993, dated 1996)
